Experimental data: PubChem BioAssay (NCI)
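Grown in 96-well plates, cells were treated for 48 hours with each compound at five concentrations. Insufficient inhibition: endpoint recorded as highest concentration tested. The concentration for full growth arrest is given as TGI.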

These compounds were tested on HT29 colon (assay: growth of human tumour cells (NCI), 48 h).
Compound `O=C1C2=Cc3ccccc3CCN2c2ccccc21` has a TGI of 23 µM. `CC(=O)OCC1OC(NC(=S)Nn2c(=O)[nH]c3ccccc3c2=O)C(OC(C)=O)C(OC(C)=O)C1OC(C)=O` (configuration not stated) was tested, and the TGI was > 100 µM. `CN(CCC(=O)N1CC(CCl)c2ccc([N+](=O)[O-])cc21)CCC(=O)N1CC(CCl)c2ccc([N+](=O)[O-])cc21` (configuration not stated) showed a TGI of 24 µM. In the case of `C[C@]12CC[C@H]3[C@@H](CCC4=CC(=O)CC[C@@H]43)[C@@H]1CC[C@]2(O)C(N)=O`, the TGI is reported as > 100 µM. `C/C(Cl)=N/OC(=O)Nc1ccc(F)c([N+](=O)[O-])c1` was tested, and the TGI was > 52.7 µM. For `O=c1[nH]c(=O)n(C/C=C/CO)nc1Br`, the TGI was > 100 µM. `O=C1CC(Br)c2c(Br)sc(Br)c21` (configuration not stated) was tested, and the TGI was 30.4 µM. With `CC[C@]12C=CCN3CC[C@@]4(c5cc(Br)c(OC)c([N+](=O)[O-])c5N(C)[C@H]4[C@@](O)(C(=O)OC)[C@@H]1OC(C)=O)[C@@H]32` the TGI was > 100 µM. For `COC(=O)C1C2OC(C)(C)OC2CN1S(=O)(=O)c1ccc(C)cc1` (configuration not stated), the TGI was > 100 µM. `COc1ccc(CNc2ccn(C3OC(CO)C(O)C3O)c(=O)n2)cc1` (configuration not stated) was tested, and the TGI was > 100 µM. `O=C1CSC(c2ccccc2)N1c1nc2cc3sc(N4C(=O)CSC4c4ccccc4)nc3cc2s1` (configuration not stated) was tested, and the TGI was > 100 µM. For `Cc1nc(N)c(N2CCN(S(N)(=O)=O)CC2)c(=O)[nH]1`, the TGI was > 100 µM. With `CC(C)OC(=O)c1ccc(NCC2=CC(=O)C=CC2=O)cc1` the TGI was 32.7 µM. With `CC(C)C[C@H]1[C@@H](OCc2ccccc2)COS(=O)(=O)N1[C@H](C)c1ccccc1` the TGI was > 100 µM. With `O=c1[nH]c2cccc([N+](=O)[O-])c2c(=O)n1-c1ccc(Cl)cc1` the TGI was 26.1 µM. In the case of `O=C1c2ccccc2-c2nnc(-c3ccc([N+](=O)[O-])cc3)cc21`, the TGI is reported as > 10 µM. In the case of `C1C2CC3CC1CC(c1nn4c(C56CC7CC(CC(C7)C5)C6)nnc4s1)(C2)C3`, the TGI is reported as > 100 µM. For `Cn1c(-c2cccs2)cc(-c2cccs2)c1-c1cccs1`, the TGI was > 100 µM. `CCSc1nnc(Sc2c3ccccc3nc3ccccc23)s1` was tested, and the TGI was > 55.6 µM. `N=c1c2ccccc2nc2oc3cc([N+](=O)[O-])ccc3n12` was tested, and the TGI was > 100 µM. Work on `CCOC(=O)CC[C@H](N)C(=O)N[C@@H](Cc1ccc(N(CCCl)CCCl)cc1)C(=O)OCC` yielded a TGI of 4.19 µM.

The compounds below were run on COLO 205 colon (assay: growth of human tumour cells (NCI), 48 h).
For `CCN(CCCl)c1cc(CN(C)C)cc(NC(=O)c2ccc(C(=O)Nc3cc(CN(C)C)cc(N(CC)CCCl)c3)cc2)c1`, the TGI was 0.551 µM. With `C=CCN1C(=O)/C(=C/c2ccc(Cl)cc2)N=C1SC/C=C/C` the TGI was > 100 µM. With `CC12Nc3c(Cl)cc(Cl)cc3N1C(=O)c1ccccc12` (configuration not stated) the TGI was > 100 µM. `O=C1C2=Cc3ccccc3CCN2c2ccccc21` was tested, and the TGI was > 56 µM. In the case of `CC(=O)OCC1OC(NC(=S)Nn2c(=O)[nH]c3ccccc3c2=O)C(OC(C)=O)C(OC(C)=O)C1OC(C)=O` (configuration not stated), the TGI is reported as > 100 µM. Compound `CN(CCC(=O)N1CC(CCl)c2ccc([N+](=O)[O-])cc21)CCC(=O)N1CC(CCl)c2ccc([N+](=O)[O-])cc21` (configuration not stated) has a TGI of 31.6 µM. For `C[C@]12CC[C@H]3[C@@H](CCC4=CC(=O)CC[C@@H]43)[C@@H]1CC[C@]2(O)C(N)=O`, the TGI was > 100 µM. `C/C(Cl)=N/OC(=O)Nc1ccc(F)c([N+](=O)[O-])c1` was tested, and the TGI was 5.38 µM. In the case of `O=c1[nH]c(=O)n(C/C=C/CO)nc1Br`, the TGI is reported as > 100 µM. Work on `O=C1CC(Br)c2c(Br)sc(Br)c21` (configuration not stated) yielded a TGI of 33.9 µM. For `CC[C@]12C=CCN3CC[C@@]4(c5cc(Br)c(OC)c([N+](=O)[O-])c5N(C)[C@H]4[C@@](O)(C(=O)OC)[C@@H]1OC(C)=O)[C@@H]32`, the TGI was > 100 µM. With `COC(=O)C1C2OC(C)(C)OC2CN1S(=O)(=O)c1ccc(C)cc1` (configuration not stated) the TGI was > 100 µM. For `COc1ccc(CNc2ccn(C3OC(CO)C(O)C3O)c(=O)n2)cc1` (configuration not stated), the TGI was > 100 µM. For `O=C1CSC(c2ccccc2)N1c1nc2cc3sc(N4C(=O)CSC4c4ccccc4)nc3cc2s1` (configuration not stated), the TGI was > 26.9 µM. In the case of `Cc1nc(N)c(N2CCN(S(N)(=O)=O)CC2)c(=O)[nH]1`, the TGI is reported as > 100 µM. Work on `CC(C)OC(=O)c1ccc(NCC2=CC(=O)C=CC2=O)cc1` yielded a TGI of 13.7 µM. With `CC(C)C[C@H]1[C@@H](OCc2ccccc2)COS(=O)(=O)N1[C@H](C)c1ccccc1` the TGI was > 100 µM. `O=c1[nH]c2cccc([N+](=O)[O-])c2c(=O)n1-c1ccc(Cl)cc1` showed a TGI of 16.6 µM. For `O=C1c2ccccc2-c2nnc(-c3ccc([N+](=O)[O-])cc3)cc21`, the TGI was > 10 µM. In the case of `C1C2CC3CC1CC(c1nn4c(C56CC7CC(CC(C7)C5)C6)nnc4s1)(C2)C3`, the TGI is reported as > 100 µM. `Cn1c(-c2cccs2)cc(-c2cccs2)c1-c1cccs1` gave a TGI of 34.1 µM. With `CCSc1nnc(Sc2c3ccccc3nc3ccccc23)s1` the TGI was 7.01 µM. For `N=c1c2ccccc2nc2oc3cc([N+](=O)[O-])ccc3n12`, the TGI was > 100 µM. `CCOC(=O)CC[C@H](N)C(=O)N[C@@H](Cc1ccc(N(CCCl)CCCl)cc1)C(=O)OCC` gave a TGI of 2.3 µM.

Each compound was assayed on OVCAR-3 ovarian (assay: growth of human tumour cells (NCI), 48 h).
`CCN(CCCl)c1cc(CN(C)C)cc(NC(=O)c2ccc(C(=O)Nc3cc(CN(C)C)cc(N(CC)CCCl)c3)cc2)c1` was tested, and the TGI was 2.66 µM. `C=CCN1C(=O)/C(=C/c2ccc(Cl)cc2)N=C1SC/C=C/C` was tested, and the TGI was > 100 µM. With `CC12Nc3c(Cl)cc(Cl)cc3N1C(=O)c1ccccc12` (configuration not stated) the TGI was > 100 µM. `O=C1C2=Cc3ccccc3CCN2c2ccccc21` was tested, and the TGI was > 100 µM. With `CC(=O)OCC1OC(NC(=S)Nn2c(=O)[nH]c3ccccc3c2=O)C(OC(C)=O)C(OC(C)=O)C1OC(C)=O` (configuration not stated) the TGI was > 100 µM. With `CN(CCC(=O)N1CC(CCl)c2ccc([N+](=O)[O-])cc21)CCC(=O)N1CC(CCl)c2ccc([N+](=O)[O-])cc21` (configuration not stated) the TGI was 23.7 µM. `C[C@]12CC[C@H]3[C@@H](CCC4=CC(=O)CC[C@@H]43)[C@@H]1CC[C@]2(O)C(N)=O` was tested, and the TGI was > 100 µM. For `C/C(Cl)=N/OC(=O)Nc1ccc(F)c([N+](=O)[O-])c1`, the TGI was 35.8 µM. In the case of `O=c1[nH]c(=O)n(C/C=C/CO)nc1Br`, the TGI is reported as > 100 µM. `O=C1CC(Br)c2c(Br)sc(Br)c21` (configuration not stated) showed a TGI of 32.9 µM. `CC[C@]12C=CCN3CC[C@@]4(c5cc(Br)c(OC)c([N+](=O)[O-])c5N(C)[C@H]4[C@@](O)(C(=O)OC)[C@@H]1OC(C)=O)[C@@H]32` was tested, and the TGI was > 100 µM. With `COC(=O)C1C2OC(C)(C)OC2CN1S(=O)(=O)c1ccc(C)cc1` (configuration not stated) the TGI was > 100 µM.
